Entries after “also recorded” stand apart in the source; their conditions may differ. Residues, ends and D or L forms follow the SMILES beside them. *: point of attachment. Cbz = O=C(OCc1ccccc1)*
How the values were obtained:
Assay type in all cases: cell-based
[1] = test system: Extope-CFTR and ΔF508 CFTR; assay: Chemiluminescence assay of cell surface Extope-CFTR and ΔF508 CFTR retained after reincubation; details: lactacystin 25 μM, reincubated for indicated times, 8 replicates
Protocol: FIG. 10D. […] Extope-CFTR and ΔF508 CFTR were labeled on intact pre-cooled cells on ice for 30 minutes with 16B12 mAb and cells were reincubated in the presence or absence of lactacystin (25 μM) for indicated times. Cell surface Extope-CFTR was detected in a chemiluminescence assay at indicated times using sheep anti-mouse peroxidase conjugate and chemiluminescence. Each experiment was performed with 8 replicates and standard deviations are indicated.

[2] = test system: Extope-ΔF508 CFTR; assay: Immunofluorescence microscopy of externally labeled Extope-ΔF508 CFTR after re-incubation with protease inhibitors; details: re-incubated at 37° C. for 7 hours
Protocol: FIG. 10B. […] Cell surface Extope-CFTR or Extope-ΔF508 CFTR were labeled with 16B12 as described in FIG. 2A. Cells were re-incubated at 37° C. for 7 hours with either lysosomal inhibitors pepstatin-A and leupeptin (Pep+Leu, each 50 μg/ml) and E64 (3.5 μg/ml) or proteasomal inhibitors lactacystin (50 μM) and MG132 (50 μM) or without drug (control) and stained for immunofluorescence microscopy. Nuclei were stained with propidium iodide.
Cells were treated with lysosomal inhibitors pepstatin-A and leupeptin as described in FIG. 5B. Extope-ΔF508 CFTR was labeled with 16B12 at the cell surface and detected 7 hours later using goat anti-mouse IgG Alexa Fluor 488 conjugate. Lysosomes were labeled with Lysotracker Red (Molecular Probes).

[3] = test system: XT-ΔF508 CFTR; assay: cyclic AMP stimulated 36Cl efflux (CFTR chloride channel activity); details: grown at 28° C. with 2 mM sodium butyrate for 48 h; forskolin (10 μM) and IBMX (1 mM)
Protocol: FIG. 5. CFTR chloride channel activity as monitored by ^36Cl efflux from cells expressing wild-type CFTR (◯), ΔF508 CFTR without (♦) or with (▴) 2 mM sodium butyrate or no CFTR (□). Cells were preloaded with ^36Cl and then exposed to forskolin (10 μM) and IBMX (1 mM) at time 0. The amounts of ^36Cl radioactivity released from the cells in subsequent 1 min intervals was monitored by scintillation counting.
To determine the functional capability of the EL2 modified variants, rates of cyclic AMP stimulated ^36Cl efflux from cells expressing them were measured. The rate of efflux from cells expressing wild-type XT-CFTR was similar to that with unmodified wild-type (FIG. 5).

[4] = test system: ΔF508 CFTR with modified EL2 (XT-ΔF508); assay: Quantitative luminescence detection of XT-ΔF508 CFTR at surface of cells in 96 well microtiter plates
Protocol: FIG. 6. Quantitative detection of CFTR with EL2 epitope (XT-CFTR) at surface of cells grown in 96 well microtiter plates. Cells were washed, fixed and exposed to an antibody recognizing the external epitope, washed again and incubated with a horseradish peroxidase coupled second antibody and then with a peroxidase substrate that becomes luminescent after peroxidation. Luminescent signals in each well were quantitated in either a Packard Microplate Luminescence Counter or a Perkin Elmer VICTOR^2 Multilabel Counter. […] The corresponding quantitative signals are shown below.
To provide a more facile and quantifiable means of detecting EL2 modified CFTR on the cell surface, cells were plated on 96-well microtiter plates. The amount of surface epitope was measured either by luminometry or time resolved fluorescence. After incubation with a primary unlabeled mouse antibody to the epitope (HA11, Babco) and washing, a secondary horseradish peroxidase coupled antibody recognizing mouse IgG was added followed by peroxidase substrate that luminesces when peroxidized. Luminescence was measured in each well in one of two different luminescence plate readers. A strong signal is obtained in the replicate row of wild-type XT-CFTR expressing cells and signals of strengthening intensity are obtained in rows of XT-ΔF508 cells grown at 28° C. with increasing concentrations of butyrate.

CC(=O)N[C@@H](CSC(=O)[C@]1([C@@H](O)C(C)C)NC(=O)[C@H](C)[C@@H]1O)C(=O)O [lactacystin]
amount of CFTR retained at the cellular surface [1]: increases the amount of CFTR retained at the cellular surface
endocytic turn over of ΔF508-CFTR ([2]; 50 μM): inhibit endocytic turn over

CC(C)C[C@@H](C=O)NC(=O)[C@H](CC(C)C)NC(=O)[C@H](CC(C)C)NC(=O)OCc1ccccc1 [MG132] (Cbz-Leu-Leu-Leu-aldehyde)
endocytic turn over of ΔF508-CFTR ([2]; 50 μM): inhibit endocytic turn over

CC(C)C[C@H](NC(=O)[C@H]1O[C@@H]1C(=O)O)C(=O)NCCCCN=C(N)N [E64]
endocytic turn over of ΔF508-CFTR ([2]; 3.5 μg/ml): inhibit endocytic turn over

CCCC(=O)[O-].[Na+] [sodium butyrate]
36Cl efflux from ΔF508 CFTR expressing cells relative to wild-type [3]: more closely approaches those of wild-type; also recorded: nearly as great as from cells expressing wild-type CFTR
amount of ΔF508 CFTR with modified EL2 detected at the cell surface (luminescent signal) ([4]; cells grown at 28° C. for 24 h, increasing concentrations of sodium butyrate): Increasing amounts
XT-ΔF508 surface luminescence signal relative to wild-type XT-CFTR ([4]; cells grown at 28° C., maximal butyrate dose): more than half that of the wild-type
